Measurements as given in US20170190705A1, “Compositions and Methods for Inhibiting BMP” (THE BRIGHAM AND WOMAN'S HOSPITAL, INC., priority 2014, published 2017).

Assays:
Format in all cases: biochemical
[1] = molecular target: T1, NEK2 (Homo sapiens, UniProt P51955); assay: Kinome profiling NEK2; conditions: read-out: Inhibitory activity NEK2; for inhibition at 0.1 µM: 100 nM
T1 sequence (P51955 1-445): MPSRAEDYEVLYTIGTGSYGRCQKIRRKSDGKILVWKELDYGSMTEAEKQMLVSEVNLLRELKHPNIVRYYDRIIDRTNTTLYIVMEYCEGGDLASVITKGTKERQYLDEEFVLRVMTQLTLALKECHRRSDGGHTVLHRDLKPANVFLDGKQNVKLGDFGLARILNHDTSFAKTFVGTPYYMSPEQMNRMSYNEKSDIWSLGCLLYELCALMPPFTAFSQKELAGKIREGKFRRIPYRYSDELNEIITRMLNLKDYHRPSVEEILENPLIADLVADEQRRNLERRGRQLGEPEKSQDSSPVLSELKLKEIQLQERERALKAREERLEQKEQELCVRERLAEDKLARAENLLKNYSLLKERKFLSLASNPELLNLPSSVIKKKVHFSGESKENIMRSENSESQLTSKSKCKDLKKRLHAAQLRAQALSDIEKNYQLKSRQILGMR
Protocol: (§1) . The kinome-wide selectivity was determined following the methods previously reported by Mohedas et al., ACS Chem Biol 2013, 8, 1291-1302 and Sanvitale et al., PLoS One 2013, 8, e62721.

[2] = molecular target: T2, EPHA3 (Homo sapiens, UniProt P29320); assay: Kinome profiling EPHA3; conditions: read-out: Inhibitory activity EPHA3; for inhibition at 0.1 µM: 100 nM
T2 sequence (P29320 21-983): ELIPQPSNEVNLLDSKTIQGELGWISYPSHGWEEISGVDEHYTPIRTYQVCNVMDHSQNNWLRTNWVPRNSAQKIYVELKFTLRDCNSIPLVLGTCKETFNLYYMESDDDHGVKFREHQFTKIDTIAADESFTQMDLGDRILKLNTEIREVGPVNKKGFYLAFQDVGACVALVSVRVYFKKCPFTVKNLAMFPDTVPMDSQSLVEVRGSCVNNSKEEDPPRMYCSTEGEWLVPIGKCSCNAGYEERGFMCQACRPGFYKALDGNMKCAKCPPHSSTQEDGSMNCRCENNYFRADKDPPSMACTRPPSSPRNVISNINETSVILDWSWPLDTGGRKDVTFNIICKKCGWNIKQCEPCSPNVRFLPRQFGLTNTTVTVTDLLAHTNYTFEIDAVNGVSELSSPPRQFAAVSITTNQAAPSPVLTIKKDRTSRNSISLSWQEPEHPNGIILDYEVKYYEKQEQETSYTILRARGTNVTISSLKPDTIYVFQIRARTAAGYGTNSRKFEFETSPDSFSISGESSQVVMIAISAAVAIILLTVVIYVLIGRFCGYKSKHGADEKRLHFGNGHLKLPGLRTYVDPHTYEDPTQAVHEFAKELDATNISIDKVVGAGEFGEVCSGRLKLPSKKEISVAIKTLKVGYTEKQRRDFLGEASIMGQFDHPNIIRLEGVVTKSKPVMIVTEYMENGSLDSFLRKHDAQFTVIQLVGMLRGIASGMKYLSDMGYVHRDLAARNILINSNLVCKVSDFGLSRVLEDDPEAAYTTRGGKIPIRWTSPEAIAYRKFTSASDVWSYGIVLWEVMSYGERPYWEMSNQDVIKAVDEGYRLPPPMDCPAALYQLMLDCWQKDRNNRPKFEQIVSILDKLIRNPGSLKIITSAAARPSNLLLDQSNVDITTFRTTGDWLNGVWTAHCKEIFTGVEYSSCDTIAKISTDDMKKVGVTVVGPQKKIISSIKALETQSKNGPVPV
Protocol: as §1

[3] = molecular target: PKC-γ (Homo sapiens, UniProt P05129); assay: Kinome profiling PKC-γ; conditions: read-out: Inhibitory activity PKC-γ; for inhibition at 0.1 µM: 100 nM
Protocol: as §1

[4] = molecular target: T3, TTK (Homo sapiens, UniProt P33981); assay: Kinome profiling TTK; conditions: read-out: Inhibitory activity TTK; for inhibition at 0.1 µM: 100 nM
T3 sequence (P33981 1-857): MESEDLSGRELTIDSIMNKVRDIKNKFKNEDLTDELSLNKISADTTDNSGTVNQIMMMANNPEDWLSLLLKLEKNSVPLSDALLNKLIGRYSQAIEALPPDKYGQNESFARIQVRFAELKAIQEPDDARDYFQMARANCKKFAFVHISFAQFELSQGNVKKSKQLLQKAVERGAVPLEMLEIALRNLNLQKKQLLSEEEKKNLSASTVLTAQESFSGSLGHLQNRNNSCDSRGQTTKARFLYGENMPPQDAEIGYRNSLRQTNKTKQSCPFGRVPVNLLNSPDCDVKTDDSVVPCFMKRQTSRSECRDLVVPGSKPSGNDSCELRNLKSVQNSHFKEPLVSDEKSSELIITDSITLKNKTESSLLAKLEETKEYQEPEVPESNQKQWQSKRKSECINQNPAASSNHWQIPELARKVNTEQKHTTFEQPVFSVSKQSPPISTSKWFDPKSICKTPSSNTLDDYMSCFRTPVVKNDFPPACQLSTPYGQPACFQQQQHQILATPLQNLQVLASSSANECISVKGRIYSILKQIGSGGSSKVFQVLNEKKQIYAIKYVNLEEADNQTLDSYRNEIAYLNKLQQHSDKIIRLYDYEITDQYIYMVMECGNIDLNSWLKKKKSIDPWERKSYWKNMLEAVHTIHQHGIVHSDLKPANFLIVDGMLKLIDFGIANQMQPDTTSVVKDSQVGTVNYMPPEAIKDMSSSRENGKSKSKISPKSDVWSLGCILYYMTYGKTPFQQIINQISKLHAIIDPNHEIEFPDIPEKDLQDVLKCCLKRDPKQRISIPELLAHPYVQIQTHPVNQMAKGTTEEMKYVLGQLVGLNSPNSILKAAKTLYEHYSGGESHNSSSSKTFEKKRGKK
Protocol: as §1

Structure (SMILES) | inhibition at 0.1 µM [1] | inhibition at 1 µM [1] | inhibition at 0.1 µM [2] | inhibition at 1 µM [2] | inhibition at 0.1 µM [3] | inhibition at 1 µM [3] | inhibition at 0.1 µM [4] | inhibition at 1 µM [4]
COc1cc(-c2cc(-c3ccc(N4CCNCC4)cc3)cnc2C)cc(OC)c1OC [Compound 10, 1-(4-(6-methyl-5-(3,4,5-trimethoxyphenyl)pyridin-3-yl)phenyl)piperazine] | 3% | 2% | 2% | 3% | 3% | 5% | 3% | 4%
COc1cc(-c2cc(-c3ccc(N4CCNCC4)cc3)cnc2N)cc(OC)c1OC [Compound 15, 5-(4-(piperazin-1-yl)phenyl)-3-(3,4,5-trimethoxyphenyl)pyridin-2-amine] | 4% | 2% | 8% | 31% | 1% | 4% | 13% | 18%
